Activity calls are given as the source filed them. No rule for the calls is given here.
Tested on: rodent carcinogenicity bioassays, tumor incidence
Assay: CCRIS carcinogenicity studies
Method in brief: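 Archive of carcinogenicity, mutagenicity, tumor promotion and tumor inhibition results drawn from journals, NCI reports and other sources, expert-reviewed; covers 1985-2011 and is no longer updated.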

Compound: CCCCC(CC)COP(=O)(OCC(CC)CCCC)OCC(CC)CCCC (stereo not drawn)
- carcinogen call (Species: MOUSE, Strain/Sex: B6C3F1/FEMALE, Route: GAVAGE, Dose: 0, 500, 1000 MG/KG IN CORN OIL 1/D 5 D/WK FOR 102-104 WK (STUDY DURATION: 102-104 WK), Dose: 0, 500, 1000 MG/KG IN CORN OIL 1/D 5 D/WK FOR 102-104 WK (STUDY DURATION: 102-104 WK), Tumor Site: Type of Lesion: LIVER: CARCINOMA, CARCINOMA OR ADENOMA): active; positive
- carcinogen call (Species: MOUSE, Strain/Sex: B6C3F1/FEMALE, Route: GAVAGE, Dose: 0, 500, 1000 MG/KG IN CORN OIL 5/WK FOR 103 WK (STUDY DURATION: 104 WK), Dose: 0, 500, 1000 MG/KG IN CORN OIL 5/WK FOR 103 WK (STUDY DURATION: 104 WK), Tumor Site: Type of Lesion: LIVER: ADENOMA, CARCINOMA): active; positive
- carcinogen call (Species: MOUSE, Strain/Sex: B6C3F1/MALE, Route: GAVAGE, Dose: 0, 500, 1000 MG/KG IN CORN OIL 1/D 5 D/WK FOR 102-104 WK (STUDY DURATION: 102-104 WK), Dose: 0, 500, 1000 MG/KG IN CORN OIL 1/D 5 D/WK FOR 102-104 WK (STUDY DURATION: 102-104 WK)): inactive; negative
- carcinogen call (Species: MOUSE, Strain/Sex: B6C3F1/MALE, Route: GAVAGE, Dose: 0, 500, 1000 MG/KG IN CORN OIL 5/WK FOR 103 WK (STUDY DURATION: 104 WK), Dose: 0, 500, 1000 MG/KG IN CORN OIL 5/WK FOR 103 WK (STUDY DURATION: 104 WK)): inactive; negative
- carcinogen call (Species: RAT, Strain/Sex: F344/FEMALE, Route: GAVAGE, Dose: 0, 1000, 2000 MG/KG IN CORN OIL 5/WK FOR 103 WK (STUDY DURATION: 103 WK), Dose: 0, 1000, 2000 MG/KG IN CORN OIL 5/WK FOR 103 WK (STUDY DURATION: 103 WK)): inactive; negative
- carcinogen call (Species: RAT, Strain/Sex: F344/FEMALE, Route: GAVAGE, Dose: 0, 1000, 2000 MG/KG IN CORN OIL 5 D/WK FOR 102-104 WK (STUDY DURATION: 102-104 WK), Dose: 0, 1000, 2000 MG/KG IN CORN OIL 5 D/WK FOR 102-104 WK (STUDY DURATION: 102-104 WK)): inactive; negative
- carcinogen call (Species: RAT, Strain/Sex: F344/MALE, Route: GAVAGE, Dose: 0, 2000, 4000 MG/KG IN CORN OIL 5/WK FOR 103 WK (STUDY DURATION: 104 WK), Dose: 0, 2000, 4000 MG/KG IN CORN OIL 5/WK FOR 103 WK (STUDY DURATION: 104 WK), Tumor Site: Type of Lesion: ADRENAL GLAND: PHEOCHROMOCYTOMA): equivocal
- carcinogen call (Species: RAT, Strain/Sex: F344/MALE, Route: GAVAGE, Dose: 0, 2000, 4000 MG/KG IN CORN OIL 5 D/WK FOR 102-104 WK (STUDY DURATION: 102-104 WK), Dose: 0, 2000, 4000 MG/KG IN CORN OIL 5 D/WK FOR 102-104 WK (STUDY DURATION: 102-104 WK)): inactive; negative

Compound: CC(C)N(C(=O)SC/C(Cl)=C/Cl)C(C)C
- carcinogen call (Species: MOUSE, Strain/Sex: B6AKF1/MALE, Route: GAVAGE/ORAL, Dose: 215 MG/KG IN GELATIN FROM D 7-28 OF LIFE THEN 560 PPM IN DIET, Tumor Site: Type of Lesion: LIVER: HEPATOMA): active; positive
- carcinogen call (Species: MOUSE, Strain/Sex: B6C3F1/MALE,FEMALE, Route: GAVAGE/ORAL, Dose: 215 MG/KG IN GELATIN FROM D 7-28 OF LIFE THEN 560 PPM IN DIET, Tumor Site: Type of Lesion: LIVER: HEPATOMA): active; positive
- carcinogen call (Species: RAT, Strain/Sex: STRAIN-CD/MALE,FEMALE, Route: ORAL, Dose: 150, 300 PPM IN DIET FOR 78 WK): inactive; negative

Compound: CCN=[N+](C)[O-]
- carcinogen call (Species: RAT, Strain/Sex: F344/MALE, Route: ORAL, Dose: 0, 12, 48 MG/ML IN A NEUTRAL DEIONIZED DRINKING WATER SOLUTION 5 D/WK FOR 30 WK (TOTAL DOSE 36; 144 MG) (STUDY DURATION:, Dose: 0, 12, 48 MG/ML IN A NEUTRAL DEIONIZED DRINKING WATER SOLUTION 5 D/WK FOR 30 WK (TOTAL DOSE 36; 144 MG) (STUDY DURATION:, Tumor Site: Type of Lesion: LIVER: CARCINOMA, HEMANGIOSARCOMA, KIDNEY: TUMOR): active; positive

Compound: CCN=[N+]([O-])CC
- carcinogen call (Species: RAT, Route: ORAL, Tumor Site: Type of Lesion: LIVER: HEMANGIOENDOTHELIOMA): active; positive
- carcinogen call (Species: RAT, Route: SUBCUTANEOUS, Tumor Site: Type of Lesion: MAMMARY GLAND, BRAIN (OLFACTORY BULB): NEUROBLASTOMA, BRAIN: GLIOMA HEMATOPOIETIC SYSTEM (LEUKEMIA), Tumor Site: Type of Lesion: MAMMARY GLAND, BRAIN (OLFACTORY BULB): NEUROBLASTOMA, BRAIN: GLIOMA HEMATOPOIETIC SYSTEM (LEUKEMIA)): active; positive
- carcinogen call (Species: RAT, Strain/Sex: F344/MALE, Route: ORAL, Dose: 0, 14, 55 MG/ML IN A NEUTRAL DEIONIZED DRINKING WATER SOLUTION 5 D/WK FOR 30 WK (TOTAL DOSE 42; 132 MG) (STUDY DURATION:, Dose: 0, 14, 55 MG/ML IN A NEUTRAL DEIONIZED DRINKING WATER SOLUTION 5 D/WK FOR 30 WK (TOTAL DOSE 42; 132 MG) (STUDY DURATION:, Tumor Site: Type of Lesion: LIVER: CARCINOMA, HEMANGIOSARCOMA, ESOPHAGUS: TUMOR, NASAL CAVITY: SQUAMOUS CELL CARCINOMA, ADENOCARCINOMA, Tumor Site: Type of Lesion: LIVER: CARCINOMA, HEMANGIOSARCOMA, ESOPHAGUS: TUMOR, NASAL CAVITY: SQUAMOUS CELL CARCINOMA, ADENOCARCINOMA): active; positive

Compound: COc1c(O)c2c(c3cc(C(=O)N4CCc5c4c(O)c(OC)c4[nH]c(C(=O)N6C[C@H]7C[C@@]78C6=CC(=O)c6[nH]cc(C)c68)cc54)[nH]c13)CCN2C(N)=O
- carcinogen call (Species: MOUSE, Strain/Sex: STRAIN-A/MALE,FEMALE, Route: INTRAVENOUS, Dose: 0, 2, 4, 8 UG/KG ONCE (STUDY DURATION: 24 WK), Dose: 0, 2, 4, 8 UG/KG ONCE (STUDY DURATION: 24 WK), Tumor Site: Type of Lesion: LUNG: ADENOMA): active; positive

Compound: NNC(=O)c1cccnc1
- carcinogen call (Species: MOUSE, Strain/Sex: SWISS/FEMALE, Route: ORAL, Dose: 0, 0.125% IN DRINKING WATER FOR LIFE, STUDY DURATION: 100-110 WK, Dose: 0, 0.125% IN DRINKING WATER FOR LIFE, STUDY DURATION: 100-110 WK, Tumor Site: Type of Lesion: LUNG: ADENOMA, ADENOMA OR ADENOCARCINOMA): active; positive
- carcinogen call (Species: MOUSE, Strain/Sex: SWISS/MALE, Route: ORAL, Dose: 0, 0.125% IN DRINKING WATER FOR LIFE, STUDY DURATION: 90-100 WK, Dose: 0, 0.125% IN DRINKING WATER FOR LIFE, STUDY DURATION: 90-100 WK, Tumor Site: Type of Lesion: LUNG: ADENOMA OR ADENOCARCINOMA): active; positive

Compound: COc1cc(/C=C/C(=O)CC(=O)/C=C/c2ccc(O)c(OC)c2)ccc1O
- carcinogen call (Species: MOUSE, Strain/Sex: B6C3F1/FEMALE, Route: ORAL, Dose: 0, 2000, 10000, 50000 PPM IN FEED FOR 104 WK (STUDY DURATION: 104 WK), Dose: 0, 2000, 10000, 50000 PPM IN FEED FOR 104 WK (STUDY DURATION: 104 WK), Tumor Site: Type of Lesion: LIVER: HEPATOCELLULAR ADENOMA, HEPATOCELLULAR ADENOMA OR CARCINOMA): equivocal
- carcinogen call (Species: MOUSE, Strain/Sex: B6C3F1/MALE, Route: ORAL, Dose: 0, 2000, 10000, 50000 PPM IN FEED FOR 104 WK (STUDY DURATION: 104 WK), Dose: 0, 2000, 10000, 50000 PPM IN FEED FOR 104 WK (STUDY DURATION: 104 WK), Tumor Site: Type of Lesion: LIVER: HEPATOCELLULAR ADENOMA, HEPATOCELLULAR ADENOMA OR CARCINOMA, SMALL INTESTINE: CARCINOMA): equivocal
- carcinogen call (Species: RAT, Strain/Sex: F344/FEMALE, Route: ORAL, Dose: 0, 2000, 10000, 50000 PPM IN FEED FOR 104 WK (STUDY DURATION: 104 WK), Dose: 0, 2000, 10000, 50000 PPM IN FEED FOR 104 WK (STUDY DURATION: 104 WK), Tumor Site: Type of Lesion: CLITORAL GLAND: ADENOMA, ADENOMA OR CARCINOMA): equivocal
- carcinogen call (Species: RAT, Strain/Sex: F344/MALE, Route: ORAL, Dose: 0, 2000, 10000, 50000 PPM IN FEED FOR 104 WK (STUDY DURATION: 104 WK), Dose: 0, 2000, 10000, 50000 PPM IN FEED FOR 104 WK (STUDY DURATION: 104 WK)): inactive; negative

Compound: CC(C)CBr
- carcinogen call (Species: MOUSE, Route: INTRAPERITONEAL, Tumor Site: Type of Lesion: LUNG): active; positive
